The target in the assay is JAK1 (Homo sapiens (Human), UniProt P23458). Kind of assay: Jak biochemical HTRF assay, JAK1. Conditions: HTRF biochemical assay, recombinant GST-tagged catalytic domain; read-out: JAK1 IC50. As for the experimental part:
Jak Biochemical HTRF Assay Protocol
The ability of compounds to inhibit the activity of JAK1, JAK2, JAK3, and Tyk2 was measured using a recombinant purified GST-tagged catalytic domain for each enzyme (Invitrogen JAK1 #M4290, JAK2 #M4290, JAK3 #M4290, Tyk2 #M4290) in an HTRF format biochemical assay. […] The basic assay protocol is as follows: First, 250 nL of diluted compounds in DMSO were dispensed into the wells of a dry 384-well Black plate (Greiner #781076) using a Labcyte Echo 555 acoustic dispenser. Subsequent reagent additions employed an Agilent Bravo. […] After equilibration, 2 μL of 10×ATP in 1× assay buffer was added to initiate the kinase reaction and the plates were shaken and then incubated at room temperature for 120 minutes. […] Plates were shaken and centrifuged and then incubated 60 minutes at room temperature and then read on a Perkin Elmer Envision (λex=337 nm, λem=665 and 615 nm, TRF delay time=20 μs). HTRF signal=10,000*665 nm reading/615 nm reading. After normalization to untreated controls, the percent inhibition of the HTRF signal at each compound concentration was calculated. The plot of percent inhibition versus the log of compound concentration was fit with a 4-parameter dose response equation to calculate IC50 values.
Final Reaction Conditions were:
Examples of the instant invention were evaluated in JAK1 and JAK2 in vitro binding assays.
(In general: In TR-FRET formats the signal depends on donor and acceptor labels being close together.)

The term IC50 denotes the point on the concentration scale where inhibition reaches its midpoint.

Chain of JAK1 (P23458 875-1153): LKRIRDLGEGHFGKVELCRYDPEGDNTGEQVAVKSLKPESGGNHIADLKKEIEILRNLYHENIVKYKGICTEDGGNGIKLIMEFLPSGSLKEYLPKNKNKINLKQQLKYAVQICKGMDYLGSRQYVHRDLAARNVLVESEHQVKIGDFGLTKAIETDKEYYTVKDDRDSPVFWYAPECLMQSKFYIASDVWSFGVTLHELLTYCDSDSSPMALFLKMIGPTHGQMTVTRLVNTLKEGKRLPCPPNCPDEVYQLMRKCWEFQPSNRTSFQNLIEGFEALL

For `CC(C)(C)N1Cc2cc(Nc3nn([C@H]4CCCCC[C@H]4C#N)c4cc[nH]c(=O)c34)ccc2S1(=O)=O` (single isomer, unassigned) [Example 3-178, (1R,2S or 1S,2R)-2-{3-[(2-tert-butyl-1,1-dioxido-2,3-dihydro-1,2-benzisothiazol-5-yl)amino]-4-oxo-4,5-dihydro-1H-pyrazolo[4,3-c]pyridin-1-yl}cycloheptanecarbonitrile], the IC50 was found to be 0.84 nM.

With `CC(C)(C)N1Cc2cc(Nc3nn([C@@H]4CCCCC[C@@H]4C#N)c4cc[nH]c(=O)c34)ccc2S1(=O)=O` (single isomer, unassigned) [Example 3-179, (1S,2R or 1R,2S)-2-{3-[(2-tert-butyl-1,1-dioxido-2,3-dihydro-1,2-benzisothiazol-5-yl)amino]-4-oxo-4,5-dihydro-1H-pyrazolo[4,3-c]pyridin-1-yl}cycloheptanecarbonitrile], the IC50 turned out to be 0.46 nM. The value for `CN(C)C(c1ccc(Nc2nn([C@H]3CCCC[C@@H]3C#N)c3cc[nH]c(=O)c23)cc1)C(F)(F)F` (single isomer, unassigned) [Example 9-3, (1S,2S)-2-(3-(4-((S or R)-1-(Dimethylamino)-2,2,2-trifluoroethyl)phenylamino)-4-oxo-4,5-dihydropyrazolo[4,3-c]pyridin-1-yl)cyclohexanecarbonitrile] was 0.16 nM; that for `CN(C)C(c1ccc(Nc2nn([C@H]3CCCC[C@@H]3C#N)c3cc[nH]c(=O)c23)cc1)C(F)(F)F` (single isomer, unassigned) [Example 9-4, (1S,2S)-2-(3-(4-((R or S)-1-(Dimethylamino)-2,2,2-trifluoroethyl)phenylamino)-4-oxo-4,5-dihydropyrazolo[4,3-c]pyridin-1-yl)cyclohexanecarbonitrile] was 0.11 nM; that for `CC1NCc2cc(Nc3nn([C@H]4CCCC[C@@H]4C#N)c4cc[nH]c(=O)c34)ccc21` (single isomer, unassigned) [Example 12-4, (1S,2S)-2-(3-{[(1S or 1R)-1-methyl-2,3-dihydro-1H-isoindol-5-yl]amino}-4-oxo-4,5-dihydro-1H-pyrazolo[4,3-c]pyridin-1-yl)cyclohexanecarbonitrile] was 0.58 nM. For the compound `CC1NCc2cc(Nc3nn([C@H]4CCCC[C@@H]4C#N)c4cc[nH]c(=O)c34)ccc21` (single isomer, unassigned) [Example 12-5, (1S,2S)-2-(3-{[(1R or 1S)-1-methyl-2,3-dihydro-1H-isoindol-5-yl]amino}-4-oxo-4,5-dihydro-1H-pyrazolo[4,3-c]pyridin-1-yl)cyclohexanecarbonitrile], the IC50 worked out at 0.61 nM. The result for `CC(c1ccc(Nc2nn([C@H]3CCCC[C@@H]3C#N)c3cc[nH]c(=O)c23)cc1)n1nccn1` (single isomer, unassigned) [Example 15-21, (1S,2S)-2-[4-oxo-3-({4-[(1S or 1R)-1-(2H-1,2,3-triazol-2-yl)ethyl]phenyl}amino)-4,5-dihydro-1H-pyrazolo[4,3-c]pyridin-1-yl]cyclohexanecarbonitrile] reads 0.39 nM; that for `CC(c1ccc(Nc2nn([C@H]3CCCC[C@@H]3C#N)c3cc[nH]c(=O)c23)cc1)n1nccn1` (single isomer, unassigned) [Example 15-22, (1S,2S)-2-[4-oxo-3-({4-[(1R or 1S)-1-(2H-1,2,3-triazol-2-yl)ethyl]phenyl}amino)-4,5-dihydro-1H-pyrazolo[4,3-c]pyridin-1-yl]cyclohexanecarbonitrile], 0.48 nM; that for `CC(C)C(c1ccc(Nc2nn([C@H]3CCCC[C@@H]3C#N)c3cc[nH]c(=O)c23)cc1)n1nccn1` (single isomer, unassigned) [Example 15-30, (1S,2S)-2-[3-({4-[(1S or 1R)-2-methyl-1-(2H-1,2,3-triazol-2-yl)propyl]phenyl}amino)-4-oxo-4,5-dihydro-1H-pyrazolo[4,3-c]pyridin-1-yl]cyclohexanecarbonitrile], 0.36 nM.

Take `CC(C)C(c1ccc(Nc2nn([C@H]3CCCC[C@@H]3C#N)c3cc[nH]c(=O)c23)cc1)n1nccn1` (single isomer, unassigned) [Example 15-31, (1S,2S)-2-[3-({4-[(1R or 1S)-2-methyl-1-(2H-1,2,3-triazol-2-yl)propyl]phenyl}amino)-4-oxo-4,5-dihydro-1H-pyrazolo[4,3-c]pyridin-1-yl]cyclohexanecarbonitrile]: the IC50 was determined as 0.25 nM. The result for `Cc1cc(Nc2nn([C@H]3CCCC[C@@H]3C#N)c3cc[nH]c(=O)c23)ccc1C(C(C)C)n1nccn1` (single isomer, unassigned) [Example 15-35, (1S,2S)-2-[3-({3-methyl-4-[(1S or 1R)-2-methyl-1-(2H-1,2,3-triazol-2-yl)propyl]phenyl}amino)-4-oxo-4,5-dihydro-1H-pyrazolo[4,3-c]pyridin-1-yl]cyclohexanecarbonitrile] reads 1.2 nM; that for `Cc1cc(Nc2nn([C@H]3CCCC[C@@H]3C#N)c3cc[nH]c(=O)c23)ccc1C(C(C)C)n1nccn1` (single isomer, unassigned) [Example 15-36, (1S,2S)-2-[3-({3-methyl-4-[(1R or 1S)-2-methyl-1-(2H-1,2,3-triazol-2-yl)propyl]phenyl}amino)-4-oxo-4,5-dihydro-1H-pyrazolo[4,3-c]pyridin-1-yl]cyclohexanecarbonitrile], 0.46 nM; that for `CC(c1ccc(Nc2nn([C@H]3CCCC[C@@H]3C#N)c3cc[nH]c(=O)c23)cc1)n1ccnn1` (single isomer, unassigned) [Example 15-41, (1S,2S)-2-[4-oxo-3-({4-[(1R or 1S)-1-(1H-1,2,3-triazol-1-yl)ethyl]phenyl}amino)-4,5-dihydro-1H-pyrazolo[4,3-c]pyridin-1-yl]cyclohexanecarbonitrile], 0.21 nM. The result for `CC(c1ccc(Nc2nn([C@H]3CCCC[C@@H]3C#N)c3cc[nH]c(=O)c23)cc1)n1ccnn1` (single isomer, unassigned) [Example 15-42, (1S,2S)-2-[4-oxo-3-({4-[(1S or 1R)-1-(1H-1,2,3-triazol-1-yl)ethyl]phenyl}amino)-4,5-dihydro-1H-pyrazolo[4,3-c]pyridin-1-yl]cyclohexanecarbonitrile] reads 0.15 nM. The result for `COCC(C)(C)CN1Cc2cc(Nc3nn([C@@H]4CCCCC[C@H]4C#N)c4cc[nH]c(=O)c34)ccc2S1(=O)=O` (single isomer, unassigned) [Example 15-46, (1R,2R or 1S,2S)-2-(3-{[2-(3-methoxy-2,2-dimethylpropyl)-1,1-dioxido-2,3-dihydro-1,2-benzisothiazol-5-yl]amino}-4-oxo-4,5-dihydro-1H-pyrazolo[4,3-c]pyridin-1-yl)cycloheptanecarbonitrile] reads 0.076 nM; that for `COCC(C)(C)CN1Cc2cc(Nc3nn([C@H]4CCCCC[C@@H]4C#N)c4cc[nH]c(=O)c34)ccc2S1(=O)=O` (single isomer, unassigned) [Example 15-49, (1S,2S or 1R,2R)-2-(3-{[2-(3-methoxy-2,2-dimethylpropyl)-1,1-dioxido-2,3-dihydro-1,2-benzisothiazol-5-yl]amino}-4-oxo-4,5-dihydro-1H-pyrazolo[4,3-c]pyridin-1-yl)cycloheptanecarbonitrile], 5.1 nM. On to `N#C[C@@H]1CCCCC[C@H]1n1nc(Nc2ccc3c(c2)CN(C(=O)N2CCCCC2)C3)c2c(=O)[nH]ccc21` (single isomer, unassigned) [Example 15-53, (1R,2R or 1S,2S)-2-(4-oxo-3-{[2-(piperidin-1-ylcarbonyl)-2,3-dihydro-1H-isoindol-5-yl]amino}-4,5-dihydro-1H-pyrazolo[4,3-c]pyridin-1-yl)cycloheptanecarbonitrile], for which the IC50 stood at 0.42 nM.

`N#C[C@H]1CCCC[C@@H]1n1nc(Nc2ccc(C3(C(F)(F)F)CCCN3)cc2)c2c(=O)[nH]ccc21` (single isomer, unassigned) [Example 15-61, (1S,2S)-2-[4-oxo-3-({4-[(2R or 2S)-2-(trifluoromethyl)pyrrolidin-2-yl]phenyl}amino)-4,5-dihydro-1H-pyrazolo[4,3-c]pyridin-1-yl]cyclohexanecarbonitrile]: the IC50 turned out to be 0.14 nM. The result for `N#C[C@H]1CCCC[C@@H]1n1nc(Nc2ccc(C3(C(F)(F)F)CCCN3)cc2)c2c(=O)[nH]ccc21` (single isomer, unassigned) [Example 15-62, (1S,2S)-2-[4-oxo-3-({4-[(2S or 2R)-2-(trifluoromethyl)pyrrolidin-2-yl]phenyl}amino)-4,5-dihydro-1H-pyrazolo[4,3-c]pyridin-1-yl]cyclohexanecarbonitrile] reads 0.11 nM; that for `N#C[C@H]1CCC[C@@H]1n1nc(Nc2ccc(C3(C(F)(F)F)CCCCN3)cc2)c2c(=O)[nH]ccc21` (single isomer, unassigned) [Example 15-71, (1S,2S)-2-[4-oxo-3-({4-[(2S or 2R)-2-(trifluoromethyl)piperidin-2-yl]phenyl}amino)-4,5-dihydro-1H-pyrazolo[4,3-c]pyridin-1-yl]cyclopentanecarbonitrile], 0.069 nM; that for `N#C[C@H]1CCC[C@@H]1n1nc(Nc2ccc(C3(C(F)(F)F)CCCCN3)cc2)c2c(=O)[nH]ccc21` (single isomer, unassigned) [Example 15-72, (1S,2S)-2-[4-oxo-3-({4-[(2R or 2S)-2-(trifluoromethyl)piperidin-2-yl]phenyl}amino)-4,5-dihydro-1H-pyrazolo[4,3-c]pyridin-1-yl]cyclopentanecarbonitrile], 0.077 nM.

These data come from US9725445B2, “Cycloalkyl nitrile pyrazolo pyridones as Janus kinase inhibitors” (Merck Sharp & Dohme Corp., priority 2013, dated 2017).
